{
  "source": "paper PMC9481538",
  "about": "“The interaction between LC8 and LCA5 reveals a novel oligomerization function of LC8 in the ciliary-centrosome system” (Scientific Reports, 2022)",
  "key": {"GST-fused LC8": {"tested_on": "GST-fused LC8", "assay": "GST pull-down of LC8 and sLCA5", "assay_type": "binding", "details": "GST-LC8 bait, MBP-, 6x-His-fused sLCA5 prey, PBS, 1 mM DTT, room temperature; result in words", "protocol": "For the pull-down experiments, GST-fused LC8 was used as bait, and MBP-, 6x-His-fused LCA5 variants as prey. For controls, GST and MBP were used. Proteins were expressed in 100 ml cultures of E. coli BL21 (DE3) Rosetta cells as described above. Cells were harvested, resuspended in 5 ml PBS supplemented with 1 mg/ml lysozyme and 1 mM DTT, sonicated and clarified by centrifugation. 20 μl of Glutathione Sepharose 4B (Macherey–Nagel) (75%) resin was used for each experiment. Baits were incubated with the resin for 1 h at room temperature, then washed with PBS supplemented with 1 mM DTT. Prey proteins were added and incubated for one hour. The beads were washed and eluted by boiling in a 2 × SDS sample buffer and analyzed in tricine SDS page according to the protocol of Schagger et al[43]."}, "LC8 [1]": {"biological_target": "T1, LC8 (Homo sapiens, UniProt Q96FJ2)", "T1 construct": "6xHis (N); made in house; host or cells: E. coli BL21 (DE3) Rosetta", "T1 sequence (Q96FJ2 whole entry, the tested form may be a part)": "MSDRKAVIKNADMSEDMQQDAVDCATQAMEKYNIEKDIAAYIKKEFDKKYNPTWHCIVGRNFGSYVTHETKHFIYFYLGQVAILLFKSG", "assay": "isothermal titration calorimetry, LCA5 peptide injected to LC8", "assay_type": "binding", "details": "MicroCal PEAQ-ITC, PBS pH 7.4, 1 mM TCEP, 25 °C; peptide injected 18 x 2 μl into LC8", "protocol": "(§1) LC8 and MBP-fused LCA5 constructs were prepared in PBS supplemented with 1 mM TCEP. Before measurement, protein samples were dialyzed overnight in PBS pH 7.4 (Orange Scientific, OrDial D14 membrane). Peptides were diluted from stock with the buffer used for dialysis. The concentration of samples was determined based on absorbance at 280 nm in the case of proteins, and 205 nm for the peptide. Experiments were performed using MicroCal PEAQ-ITC (Malvern Panalytical), LCA5 peptides were measured at 25 °C, proteins were analyzed at 37 °C. Lebercilin peptide was injected into the cell 18 times 2 μl volumes, with 5 min timing between injections. In case of the protein, LCA5 was placed in the sample cell, and LC8 was injected during 37 injections, 1 μl each. The results were evaluated using MicroCal PEAQ-ITC Analysis Software."}, "LC8 [2]": {"biological_target": "T1, LC8", "assay": "LC8 binding of the second (CQS) motif at the peptide level", "details": "residues 317–324 of LCA5; method not stated; result in words", "protocol": "as §1, with “In case of the protein, LCA5 was placed in the sample cell, and LC8 was injected during 37 injections, 1 μl each.” left out\nFluorescence polarization experiments were carried out at 25 °C in PBS supplemented by 2 mM TCEP and 0.05% Brij using a Synergy H4 (BioTek Instruments) plate reader. […] Briefly, 50 nM labeled BMF peptide was mixed with LC8 in a concentration to achieve 80% saturation, determined by direct titration (12 μM at 80% saturation). Subsequently, the above-mentioned complex was titrated with a two-fold dilution series of competitor LCA5 peptide (DLCTKGVQTME) (start at 500 μM) and the decrease of polarization was recorded. To determine the Kd of the LCA5-peptide-LC8 complex, first the Kd of the BMF-LC8 complex was calculated. […]"}, "LC8 [3]": {"biological_target": "T1, LC8", "assay": "direct fluorescence polarization titration of labeled BMF peptide with LC8", "assay_type": "binding", "details": "50 nM FITC-labeled BMF, PBS, 2 mM TCEP, 0.05% Brij, 25 °C", "protocol": "Fluorescence polarization experiments were carried out at 25 °C in PBS supplemented by 2 mM TCEP and 0.05% Brij using a Synergy H4 (BioTek Instruments) plate reader. N-terminally fluorescein 5-isothiocyanate (FITC) labeled, known binding peptide of LC8, BMF (TSQEDKATQTL) was used as a reporter peptide to form LC8-BMF complex and LCA5 was applied to compete the BMF peptide. Briefly, 50 nM labeled BMF peptide was mixed with LC8 in a concentration to achieve 80% saturation, determined by direct titration (12 μM at 80% saturation). Subsequently, the above-mentioned complex was titrated with a two-fold dilution series of competitor LCA5 peptide (DLCTKGVQTME) (start at 500 μM) and the decrease of polarization was recorded. To determine the Kd of the LCA5-peptide-LC8 complex, first the Kd of the BMF-LC8 complex was calculated. The polarization signal recorded at direct titration of BMF peptide with LC8 was plotted against the concentration of LC8. Then the Kd of the BMF-LC8 complex was calculated by the fitting of a direct binding equation in Origin 8. To determinate the Kd of the competitor peptide, the measured polarization was plotted against the concentration of LCA5 peptide in the competitive titration and the data was fitted by the competitive binding equation in Origin 8 where Kd of the BMF-LC8 complex was one of the parameters of the competitive equation. […]"}, "LC8 [4]": {"biological_target": "T1, LC8", "details": "literature, ref (6)-(10) of supplement, cited from earlier work", "source_text": "According to the standard model of LC8 interactions, the dimeric interface of LC8 presents two interaction sites for partners which also form dimers, implying a 1:1 stoichiometry. Partners with two adjacent binding motifs, like ANA2, follow a 1:2 stoichiometry by binding two LC8[18]. Intriguingly, we observed a 2:1 LCA5:LC8 stoichiometry for the ΔCQS and the ΔVQT mutants, which means that one LC8 dimer binds four LCA5 chains (Supplementary Table S1). A reasonable interpretation is that the native LCA5 is dimeric and thus a pair of LCA5 dimers bind to one dimeric LC8. In such a situation, one i ... || page 10: Composition of complexes Number of LC8 Number of Ratio of LCA5 LC8 binding monomeric binding monomeric LC8 in monomers to LC8 Gene name sites partners in complex complex monomers SWA (6) 1 2 2 1:1 DYNC1I1 (7) 1 2 2 1:1 WDR34-WDR60 3 1+1 6 1:3 (8) ANA2 (9) 2 2 4 1:2 ASCIZ (10) 11 2 22 1:11 sLCA5-WT 2 4 4 1:1 sLCA5-single 1 4 2 2:1 mutants Supplementary Table S1. Stoichiometries of various LC8 binding partners in complex with LC8. Known LC8 binding partners according to literature data always form dimers upon LC8 binding. The stoichiometry is basically 1:1 in case of one LC8 binding sit ..."}},
  "note": "Where no end group is shown, it is not given here.",
  "data": [
    {"substance": "CAAAAAAM: sLCA5 with further alanine mutations introduced into the VQT motif", "values": [
      {"measurement": "interaction with LC8 (GST pull-down)", "setting": "GST-fused LC8", "value": "persisted despite the mutations"}
    ]},
    {"substance": "DLCTKGVQTME [LCA5 peptide]", "values": [
      {"measurement": "Kd", "setting": "LC8 [1]", "value": 2600, "unit": "nM"}
    ]},
    {"substance": "KNAACQSD", "values": [
      {"measurement": "binding of the second motif to LC8 at the peptide level", "setting": "LC8 [2]", "value": "could not be verified at the peptide level"}
    ]},
    {"substance": "TSQEDKATQTL [BMF]", "values": [
      {"measurement": "LC8 concentration at 80% saturation of labeled BMF peptide", "setting": "LC8 [3]", "value": 12, "unit": "µM"}
    ]},
    {"substance": "WDR34-WDR60: known LC8 binding partner, literature", "values": [
      {"measurement": "Number of monomeric LC8 in complex", "setting": "LC8 [4]; composition of complexes", "value": 6},
      {"measurement": "Number of monomeric binding partners in complex", "setting": "LC8 [4]; composition of complexes", "value": "1+1"},
      {"measurement": "LC8 binding sites", "setting": "LC8 [4]", "value": 3}
    ]}
  ]
}
